Laboratory results from ChEMBL document CHEMBL4000220, “Optimization of spirocyclic proline tryptophan hydroxylase-1 inhibitors” (Bioorg Med Chem Lett, 2017).

Legend:
Rattus norvegicus [1] = experiment: Half life in rat assessed as (S)-8-(2-amino-6-((R)-1-(3',4'-dimethyl-3-(3-methyl-1H-pyrazol-1-yl)biphenyl-4-yl)-2,2,2-trifluoroethoxy)pyrimidin-4-yl)-2,8-diazaspiro[4.5]decane-3-carboxylic acid level at 1 mg/kg, iv; type: ADME, organism-based; conditions: in vivo
Rattus norvegicus [2] = experiment: Cmax in rat assessed as (S)-8-(2-amino-6-((R)-1-(3',4'-dimethyl-3-(3-methyl-1H-pyrazol-1-yl)biphenyl-4-yl)-2,2,2-trifluoroethoxy)pyrimidin-4-yl)-2,8-diazaspiro[4.5]decane-3-carboxylic acid level at 25 mg/kg, po; type: ADME, organism-based; set-up: dose 25 mg/kg, route oral; conditions: in vivo
Rattus norvegicus [3] = experiment: AUC (0 to last) in rat assessed as (S)-8-(2-amino-6-((R)-1-(3',4'-dimethyl-3-(3-methyl-1H-pyrazol-1-yl)biphenyl-4-yl)-2,2,2-trifluoroethoxy)pyrimidin-4-yl)-2,8-diazaspiro[4.5]decane-3-carboxylic acid level at 25 mg/kg, po; type: ADME, organism-based; set-up: dose 25 mg/kg, time 0 - last, route oral; conditions: in vivo
Mus musculus [4] = experiment: In vivo inhibition of TPH1 in mouse assessed as reduction in 5-HT level in intestinal mucosa at 50 mg/kg, po administered daily as single dose relative to control; type: functional
[5] = Prodrug activation in rat hepatocytes assessed as ester hydrolysis by measuring 8-(2-amino-6-((R)-1-(4-chloro-2-(3-methyl-1H-pyrazol-1-yl)phenyl)-2,2,2-trifluoroethoxy)pyrimidin-4-yl)-2,8-diazaspiro[4.5]decane-3-carboxylic acid level by LC/UV/MS method; type: cell-based, Hepatocyte
[6] = Drug metabolism in rat hepatocytes assessed as 8-(2-amino-6-((R)-1-(2-(3-carboxy-1H-pyrazol-1-yl)-4-chlorophenyl)-2,2,2-trifluoroethoxy)pyrimidin-4-yl)-2,8-diazaspiro[4.5]decane-3-carboxylic acid formation by LC/UV/MS method; type: ADME, cell-based, Hepatocyte
[7] = Drug metabolism in rat hepatocytes assessed as 8-(2-amino-6-((R)-1-(4-chloro-2-(3-(sulfooxymethyl)-1H-pyrazol-1-yl)phenyl)-2,2,2-trifluoroethoxy)pyrimidin-4-yl)-2,8-diazaspiro[4.5]decane-3-carboxylic acid formation by LC/UV/MS method; type: ADME, cell-based, Hepatocyte
[8] = Drug metabolism in rat hepatocytes assessed as hydroxylation by measuring 8-(2-amino-6-((R)-1-(4-chloro-2-(3-(hydroxymethyl)-1H-pyrazol-1-yl)phenyl)-2,2,2-trifluoroethoxy)pyrimidin-4-yl)-2,8-diazaspiro[4.5]decane-3-carboxylic acid level by LC/UV/MS method; type: ADME, cell-based, Hepatocyte
Mus musculus [9] = experiment: Prodrug activation in mouse assessed as (S)-8-(2-amino-6-((R)-1-(5-chlorobiphenyl-2-yl)-2,2,2-trifluoroethoxy)pyrimidin-4-yl)-2,8-diazaspiro[4.5]decane-3-carboxylic acid formation at 10 to 50 mg/kg, po administered as single dose; type: organism-based; conditions: in vivo
[10] = Volume of distribution at steady state in rat at 1 mg/kg, iv; type: ADME, organism-based; conditions: in vivo, read-out: Vdss
Canis familiaris [11] = experiment: Half life in beagle dog assessed as (S)-8-(2-amino-6-((R)-1-(5-chlorobiphenyl-2-yl)-2,2,2-trifluoroethoxy)pyrimidin-4-yl)-2,8-diazaspiro[4.5]decane-3-carboxylic acid level at 1 mg/kg, iv; type: ADME, organism-based, Canis lupus familiaris; conditions: in vivo
Canis familiaris [12] = experiment: Volume of distribution at steady state in beagle dog at 1 mg/kg, iv; type: ADME, organism-based, Canis lupus familiaris; conditions: in vivo
Canis familiaris [13] = experiment: Half life in beagle dog at 1 mg/kg, iv; type: ADME, organism-based, Canis lupus familiaris; conditions: in vivo
Rattus norvegicus [14] = experiment: Clearance in rat at 1 mg/kg, iv relative to hepatic blood flow; type: ADME, organism-based; conditions: in vivo
Canis familiaris [15] = experiment: AUC (0 to last) in beagle dog assessed as (S)-8-(2-amino-6-((R)-1-(5-chlorobiphenyl-2-yl)-2,2,2-trifluoroethoxy)pyrimidin-4-yl)-2,8-diazaspiro[4.5]decane-3-carboxylic acid level at 25 mg/kg, po; type: ADME, organism-based, Canis lupus familiaris; set-up: dose 25 mg/kg, time 0 - last, route oral; conditions: in vivo
Canis familiaris [16] = experiment: Clearance in beagle dog at 1 mg/kg, iv relative to hepatic blood flow; type: ADME, organism-based, Canis lupus familiaris; conditions: in vivo
Rattus norvegicus [17] = experiment: Cmax in rat assessed as (S)-8-(2-amino-6-((R)-1-(5-chlorobiphenyl-2-yl)-2,2,2-trifluoroethoxy)pyrimidin-4-yl)-2,8-diazaspiro[4.5]decane-3-carboxylic acid level at 25 mg/kg, po; type: ADME, organism-based; set-up: dose 25 mg/kg, route oral; conditions: in vivo
[18] = Half life in rat at 1 mg/kg, iv; type: ADME, organism-based; conditions: in vivo
Canis familiaris [19] = experiment: Cmax in beagle dog assessed as (S)-8-(2-amino-6-((R)-1-(5-chlorobiphenyl-2-yl)-2,2,2-trifluoroethoxy)pyrimidin-4-yl)-2,8-diazaspiro[4.5]decane-3-carboxylic acid level at 25 mg/kg, po; type: ADME, organism-based, Canis lupus familiaris; set-up: dose 25 mg/kg, route oral; conditions: in vivo
Mus musculus [20] = experiment: In vivo inhibition of TPH1 in mouse assessed as reduction in 5-HT level in intestinal mucosa at 10 mg/kg, po administered daily as single dose relative to control; type: functional
[21] = Clearance in rat at 1 mg/kg, iv; type: ADME, organism-based; conditions: in vivo
Rattus norvegicus [22] = experiment: AUC (0 to last) in rat assessed as (S)-8-(2-amino-6-((R)-1-(5-chlorobiphenyl-2-yl)-2,2,2-trifluoroethoxy)pyrimidin-4-yl)-2,8-diazaspiro[4.5]decane-3-carboxylic acid level at 25 mg/kg, po; type: ADME, organism-based; set-up: dose 25 mg/kg, route oral, time 0 - last; conditions: in vivo

CCOC(=O)[C@@H]1CC2(CCN(c3cc(O[C@H](c4ccc(-c5ccc(C)c(C)c5)cc4-n4ccc(C)n4)C(F)(F)F)nc(N)n3)CC2)CN1
t1/2 (Rattus norvegicus [1]): 3.6 h
Cmax (Rattus norvegicus [2]): 240 ng/mL
AUClast (Rattus norvegicus [3]): 1634 ng·h/mL
inhibition in vivo at 50 mg/kg (Mus musculus [4]): 70%

CCOC(=O)C1CC2(CCN(c3cc(O[C@H](c4ccc(Cl)cc4-n4ccc(C)n4)C(F)(F)F)nc(N)n3)CC2)CN1 (stereo partly drawn)
Drug metabolism [5]: Metabolite_Detected
Drug metabolism [6]: Metabolite_Detected
Drug metabolism [7]: Metabolite_Detected
Drug metabolism [8]: Metabolite_Detected

CCOC(=O)[C@@H]1CC2(CCN(c3cc(O[C@H](c4ccc(Cl)cc4-c4ccccc4)C(F)(F)F)nc(N)n3)CC2)CN1 [RODATRISTAT ETHYL]
Drug metabolism (Mus musculus [9]): Metabolite_Detected
Vd [10]: 12.7 L/kg
t1/2 (Canis familiaris [11]): 7.59 h
Vdss (Canis familiaris [12]): 2.34 L/kg
t1/2 (Canis familiaris [13]): 5.05 h
CL (Rattus norvegicus [14]): > 100%
AUClast (Canis familiaris [15]): 32398 ng·h/mL
CL (Canis familiaris [16]): 46%
inhibition in vivo at 50 mg/kg (Mus musculus [4]): 71%
Cmax (Rattus norvegicus [17]): 722 ng/mL
half-life [18]: 3.18 h
Cmax (Canis familiaris [19]): 2797 ng/mL
inhibition in vivo at 10 mg/kg (Mus musculus [20]): 55%
clearance [21]: 106 mL/min/kg
AUClast (Rattus norvegicus [22]): 5374 ng·h/mL
